Patent US11285156B2, “Substituted piperazines as KRAS G12C inhibitors” (Amgen Inc., priority 2018, dated 2022)
Like-named read-outs stand apart in the source and are kept apart here.

Columns and labels:
[1] = biological target: GDP-bound KRAS protein (aa 1-169), containing both G12C and C118A amino acid substitutions (Homo sapiens (Human), UniProt P01116, C118A/G12C); assay: Coupled nucleotide exchange assay (SOS-mediated nucleotide exchange, AlphaScreen); assay type: biochemical; conditions: 5 min compound pre-incubation; for IC50: read-out: Coupled exchange IC50 (5 min; μM)
GDP-bound KRAS protein (aa 1-169), containing both G12C and C118A amino acid substitutions, sequence (P01116 other isoform, or with tags, fused parts or gaps G12C/C118A): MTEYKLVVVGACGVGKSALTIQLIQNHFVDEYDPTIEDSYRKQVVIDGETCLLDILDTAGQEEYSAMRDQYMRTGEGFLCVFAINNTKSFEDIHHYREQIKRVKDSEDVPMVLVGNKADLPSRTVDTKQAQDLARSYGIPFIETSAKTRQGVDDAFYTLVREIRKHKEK

[2] = tested on: Phosphorylation of ERK1/2 in A549 cells; assay: Phospho-ERK1/2 MSD assay in A549 cells; assay type: cell-based; conditions: read-out: p-ERK IC50 (2 h, A549; μM), 2 h compound treatment, A549 cells, EGF stimulated
In short: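 MSD electrochemiluminescent read-out of phospho-ERK1/2 in RIPA lysates. Cells in RPMI 1640 with 10% FBS received titrated compound for 2 or 4 h, then 10 ng/mL EGF for 10 min before ice-cold PBS wash and lysis.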

[3] = tested on: Phosphorylation of ERK1/2 in MIA PaCa-2 cells; assay: Phospho-ERK1/2 MSD assay in MIA PaCa-2 cells; assay type: cell-based; conditions: read-out: p-ERK IC50 (2 h, MiaPaCa-2; μM), 2 h compound treatment, MIA PaCa-2 cells, EGF stimulated
In short: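 Phospho-ERK1/2 measured by MSD electrochemiluminescence kit in RIPA lysates of MIA PaCa-2 cells. Cells were treated with compound titrations for 2 or 4 h at 37 °C, 5% CO2, followed by a 10 min pulse of 10 ng/mL EGF.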

| Structure (SMILES) | Coupled exchange IC50 (5 min; μM) [1] [µM] | IC50 ([2]; Homo sapiens, A549, 2 h) [µM] | IC50 [3] [µM] | IC50 [1] [µM] | IC50 ([3]; Homo sapiens, MIA PaCa-2, 2 h) [µM] | IC50 [2] [µM] |
| --- | --- | --- | --- | --- | --- | --- |
| C=CC(=O)N1C[C@H](C)N(c2nc(=O)n(-c3c(C4CC4)ccnc3C(C)C)c3nc(-c4ccccc4C)c(Cl)cc23)C[C@H]1C (single isomer, unassigned) [Example 124-9] | 0.122 | > 7.5 | 0.169 | – | – | – |
| C=CC(=O)N1CCN(c2nc(=O)n(-c3c(C(C)C)ccnc3C(C)C)c3nc(-c4ccccc4C)c(Cl)cc23)[C@@H](C)C1 (single isomer, unassigned) [Example 124-10] | – | > 7.5 | – | 0.046 | 0.049 | – |
| C=CC(=O)N1C[C@H](C)N(c2nc(=O)n(-c3c(C(C)C)ccnc3C(C)C)c3nc(-c4ccccc4C(C)C)c(Cl)cc23)C[C@H]1C (single isomer, unassigned) [Example 125-8] | – | – | 0.137 | 0.113 | – | 5.05 |
| C=CC(=O)N1C[C@H](C)N(c2nc(=O)n(-c3c(C4CC4)ccnc3C(C)C)c3nc(-c4ccccc4C)c(Cl)cc23)C[C@H]1C (single isomer, unassigned) [Example 125-9] | 0.035 | – | 0.048 | – | – | > 7.5 |
| C=CC(=O)N1CCN(c2nc(=O)n(-c3c(C(C)C)ccnc3C(C)C)c3nc(-c4ccccc4C)c(Cl)cc23)[C@@H](C)C1 (single isomer, unassigned) [Example 125-10] | – | – | 0.068 | 0.032 | – | > 7.5 |
| C=CC(=O)N1CCN(c2nc(=O)n(CC(C)(C)C)c3nc(-c4ccccc4F)c(Cl)cc23)CC1CC#N (single isomer, unassigned) [Example 145-1-1, 2-[4-[6-Chloro-1-(2,2-dimethylpropyl)-7-(2-fluorophenyl)-2-oxo-pyrido[2,3-d]pyrimidin-4-yl]-1-prop-2-enoyl-piperazin-2-yl]acetonitrile] | – | – | 1.3 | 1.71 | – | 5.53 |
| C=CC(=O)N1CCN(c2nc(=O)n(CC(C)(C)C)c3nc(-c4ccccc4F)c(Cl)cc23)CC1CC#N (single isomer, unassigned) [Example 145-1-2, 2-[4-[6-Chloro-1-(2,2-dimethylpropyl)-7-(2-fluorophenyl)-2-oxo-pyrido[2,3-d]pyrimidin-4-yl]-1-prop-2-enoyl-piperazin-2-yl]acetonitrile] | – | – | 1.05 | 1.15 | – | 3.94 |
| C=CC(=O)N1C[C@H](C)N(c2nc(=O)n3c4nc(c(Cl)cc24)-c2ccccc2C/C=C\Cc2cccc(C(C)C)c2-3)C[C@H]1C (single isomer, unassigned) [Example 146-2-2] | – | 5.48 | – | 0.061 | 0.096 | – |
| C=CC(=O)N1C[C@H](C)N(c2nc(=O)n3c4nc(c(Cl)cc24)-c2ccccc2C/C=C/Cc2ccccc2-3)C[C@H]1C (single isomer, unassigned) [Example 146-3-2] | – | > 7.5 | – | 4.4 | 1.05 | – |
| C=CC(=O)N1C[C@H](C)N(c2nc(=O)n3c4nc(c(Cl)cc24)-c2ccccc2C/C=C\Cc2ccccc2-3)C[C@H]1C (single isomer, unassigned) [Example 146-3-4] | – | – | 1.26 | 7.96 | – | > 7.5 |
| C=CC(=O)N1C[C@H](C)N(c2nc(=O)n(-c3c(C)cc(CC)nc3C(C)C)c3nc(-c4ccccc4F)c(Cl)cc23)C[C@H]1C (single isomer, unassigned) [Example 166-1] | 0.049 | > 7.5 | – | – | 0.118 | – |
| C=CC(=O)N1CCN(c2nc(=O)n(-c3c(C)cc(N)nc3C(C)C)c3nc(-c4ccccc4F)c(Cl)cc23)[C@@H](C)C1 (single isomer, unassigned) [Example 183-2] | – | > 7.5 | – | 0.058 | 0.043 | – |
| C=CC(=O)N1C[C@H](C)N(c2nc(=O)n(-c3c(N)ncnc3C(C)C)c3nc(-c4ccccc4F)c(Cl)cc23)C[C@H]1C (single isomer, unassigned) [Example 189-1] | 0.036 | > 7.5 | – | – | 0.072 | – |
| C=CC(=O)N1C[C@H](C)N(c2nc(=O)n(-c3c(C)nc(Cl)nc3C(C)C)c3nc(-c4ccccc4F)c(Cl)cc23)C[C@H]1C (single isomer, unassigned) [Example 191-2] | 0.079 | > 7.5 | – | – | 0.079 | – |
| C=CC(=O)N1C[C@H](C)N(c2nc(=O)n(-c3c(C)ncnc3C(C)C)c3nc(-c4ccccc4F)c(Cl)cc23)C[C@H]1C (single isomer, unassigned) [Example 194-1] | 0.067 | > 7.5 | – | – | 0.033 | – |
| C=CC(=O)N1C[C@H](C)N(c2nc(=O)n(-c3c(C)nc(N(C)C)nc3C(C)C)c3nc(-c4ccccc4F)c(Cl)cc23)C[C@H]1C (single isomer, unassigned) [Example 196] | 0.048 | > 7.5 | – | – | 0.097 | – |

| Structure (SMILES) | Coupled exchange IC50 (5 min; μM) [1] [µM] | IC50 ([2]; Homo sapiens, A549, 2 h) [µM] | IC50 [3] [µM] | IC50 [1] [µM] | IC50 ([3]; Homo sapiens, MIA PaCa-2, 2 h) [µM] | IC50 [2] [µM] |
| --- | --- | --- | --- | --- | --- | --- |
| C=CC(=O)N1C[C@H](C)N(c2nc(=O)n(-c3c(C)nc(Br)nc3C(C)C)c3nc(-c4ccccc4F)c(Cl)cc23)C[C@H]1C (single isomer, unassigned) [Example 197-2] | 0.01 | > 7.5 | – | – | 0.091 | – |
| C=CC(=O)N1C[C@H](C)N(c2nc(=O)n(-c3c(C)nc(C4CC4)nc3C(C)C)c3nc(-c4ccccc4F)c(Cl)cc23)C[C@H]1C (single isomer, unassigned) [Example 198] | 0.075 | 5.96 | – | – | 0.136 | – |
| C=CC(=O)N1C[C@H](C)N(c2nc(=O)n(-c3c(C)nc(CC)nc3C(C)C)c3nc(-c4ccccc4F)c(Cl)cc23)C[C@H]1C (single isomer, unassigned) [Example 199] | 0.132 | > 7.5 | – | – | 0.087 | – |
| C=CC(=O)N1C[C@H](C)N(c2nc(=O)n(-c3c(C)nc(F)nc3C(C)C)c3nc(-c4ccccc4F)c(Cl)cc23)C[C@H]1C (single isomer, unassigned) [Example 200] | 0.03 | > 7.5 | – | – | 0.094 | – |
| C=CC(=O)N1C[C@H](C)N(c2nc(=O)n(-c3c(C)nc(C(=C)C)nc3C(C)C)c3nc(-c4ccccc4F)c(Cl)cc23)C[C@H]1C (single isomer, unassigned) [Example 201] | 0.075 | 5.05 | – | – | 0.205 | – |
| C=CC(=O)N1C[C@H](C)N(c2nc(=O)n(-c3c(C)nc(C=C)nc3C(C)C)c3nc(-c4ccccc4F)c(Cl)cc23)C[C@H]1C (single isomer, unassigned) [Example 202] | 0.071 | > 7.5 | – | – | 0.075 | – |
| C=CC(=O)N1C[C@H](C)N(c2nc(=O)n(-c3c(C)nc(C(C)C)nc3C(C)C)c3nc(-c4ccccc4F)c(Cl)cc23)C[C@H]1C (single isomer, unassigned) [Example 203] | 0.223 | > 7.5 | – | – | 0.243 | – |
| C#Cc1nc(C)c(-n2c(=O)nc(N3C[C@@H](C)N(C(=O)C=C)C[C@@H]3C)c3cc(Cl)c(-c4ccccc4F)nc32)c(C(C)C)n1 (single isomer, unassigned) [Example 204] | 0.066 | 3.01 | – | – | 0.091 | – |
| C=CC(=O)N1C[C@H](C)N(c2nc(=O)n(-c3c(C(C)C)cnnc3C(C)C)c3nc(-c4ccccc4F)c(Cl)cc23)C[C@H]1C (single isomer, unassigned) [Example 205-1] | 0.098 | > 7.5 | – | – | 0.07 | – |
| C=CC(=O)N1C[C@H](C)N(c2nc(=O)n(-c3c(C(C)C)cnnc3C(C)C)c3nc(-c4ccccc4F)c(Cl)cc23)C[C@H]1C (single isomer, unassigned) [Example 205-2] | 0.078 | – | 0.091 | – | – | > 7.5 |
| C=CC(=O)N1C[C@H](C)N(c2nc(=O)n(-c3c(C(C)C)cccc3S(C)(=O)=O)c3nc(-c4ccccc4F)c(Cl)cc23)C[C@H]1C (single isomer, unassigned) [Example 208-2] | – | – | 0.106 | 0.117 | – | > 7.5 |
| C=CC(=O)N1C[C@H](C)N(c2nc(=O)n(-c3c(C(C)C)cccc3[S+](C)[O-])c3nc(-c4ccccc4F)c(Cl)cc23)C[C@H]1C (single isomer, unassigned) [Example 209-1] | 0.088 | > 7.5 | – | – | 0.116 | – |
| C=CC(=O)N1C[C@H](C)N(c2nc(=O)n(-c3c(C)cc([S+](C)[O-])cc3C(C)C)c3nc(-c4ccccc4C)c(Cl)cc23)C[C@H]1C (single isomer, unassigned) [Example 213-2] | 0.072 | > 7.5 | – | – | 0.069 | – |
| C=CC(=O)N1C[C@H](C)N(c2nc(=O)n(-c3c(C)cc([S+](C)[O-])cc3C(C)C)c3nc(-c4ccccc4C)c(Cl)cc23)C[C@H]1C (single isomer, unassigned) [Example 213-3] | 0.066 | – | 0.074 | – | – | > 7.5 |
| C=CC(=O)N1C[C@H](C)N(c2nc(=O)n(-c3c(C)cc(S(C)(=O)=O)cc3C(C)C)c3nc(-c4ccccc4F)c(Cl)cc23)C[C@H]1C (single isomer, unassigned) [Example 215-2] | 0.055 | > 7.5 | – | – | 0.086 | – |
